Reference: patent US8183006B2, “Screening method for identifying new aminoacyl-tRNA synthetase inhibitors” (Fundacio Privada Parc Cientific de Barcelona, priority 2006, dated 2012)

Columns and labels:
[1] = system: HeLa cells expressing S. pneumoniae editing-defective isoleucyl-tRNA synthetase (IleRSTA); test: valine toxicity in transfected HeLa cells, cell death by propidium iodide staining (flow cytometry); assay type: cell-based, human; conditions: IleRSTA-expressing HeLa cells compared to wild type IleRS or GFP expressing HeLa cells; FIG. 2
Protocol: Cell death was measured by propidium iodide staining. Axis y represents the percentage of cell survival (abbreviated as “% C.S.”) and axis x represents the concentration of valine (mM).
For transient transfections, 20 μg of each DNA construct was added to 500 μl water containing 252 mM CaCl2. Then, 500 μl of 2×Hepes-buffered-saline buffer (280 mM NaCl, 10 mM KCl, 1.5 mM Na2HPO4, 50 mM HEPES, 12 mM dextrose, pH 7.1) was added to the DNA mixture drop by drop. 16 hours after adding this transfection mixture to the cells, the medium containing DNA was removed and new medium was added. After 24 hours, transfected cells were used for experimentation.
10 μg/ml propidium iodide was used for determination of cell viability in transiently GFP fusion proteins transfected HeLa cells. Stained cells were analyzed immediately using a Coulter Epics XL (Beckman Coulter) and analyzed using System II software.
To assess whether the expression S. pneumoniae mutated editing domain GFPIleRS has a toxic effect in a mammalian system in the presence of increasing concentrations of valine in the media, GFP, S. pneumoniae wild type (IleRS) and mutated editing domain (IleRSTA) were expressed in HeLa cells.

[2] = system: isoleucyl-tRNA synthetases (IleRS) from Gram-positive infectious pathogens; conditions: cited from earlier work
[3] = limits use to topical applications; cited from earlier work

Row | Compound | sensitivity to cell death (% cell survival) with increasing concentrations of valine in the media [1] | selectivity for pathogen vs. mammalian IleRS [2] [fold] | systemic bioavailability [3]
1 | CC(C)[C@H](N)C(=O)O [valine] | higher sensitivity |  | 
2 | C/C(=C\C(=O)OCCCCCCCCC(=O)O)C[C@@H]1OC[C@H](C[C@@H]2O[C@H]2[C@@H](C)[C@H](C)O)[C@@H](O)[C@H]1O [Pseudomonic acid] |  | ~8000 | lack of systemic bioavailability
